Laboratory results reported in paper PMC9718554, “Discovery of a fragment hit compound targeting D-Ala:D-Ala ligase of bacterial peptidoglycan biosynthesis” (Journal of Enzyme Inhibition and Medicinal Chemistry, 2022).
In brackets after ≈: the same amount, converted by molar mass. Read-outs that look alike come from different tables or passages of the source.

What was measured:
[1] = biological target: T1, E. coli DdlB enzyme (D-alanine:D-alanine ligase) (Escherichia coli, UniProt P07862); assay: biochemical; conditions: for IC50: 700 μM D-Ala, 100 μM ATP, read-out: DdlB inhibition IC50; for remaining activity at 5000 µM: at 5 mM; for remaining activity at 2200 µM: tested concentration 2.2 mM
T1 construct: made in house; host or cells: E. coli

DdlB from E. coli = biological target: T2, DdlB from E. coli (Escherichia coli, UniProt P07862); assay: Steady-state kinetics, Ki determination against DdlB (ATP varied); type: biochemical
T2 construct: made in house; host or cells: E. coli
Method: Binding of 3 to DdlB was confirmed by an orthogonal biophysical assay, surface plasmon resonance (SPR). The protein was covalently attached to the surface of the CM5 chip (∼7700 response units), and the ligand was titrated across the surface (Figure 2(B)). […] Steady-state kinetics were performed to gain mechanistic insight into the inhibition of compound 3 (Supplementary Figure S3 and Table S6).
For compound 3, Ki values were determined against DdlB from E. coli. Ki determinations were performed under similar conditions as described for DdlB inhibition assay, where different concentration of one substrate and fixed concentration of the other were used. The concentration of ATP (50, 100, 200, 300 and 500 µM) was varied at fixed concentration of D-Ala (700 µM). The concentrations of compound 3 were 0, 25, 50, 100, 250, 500, and 1000 µM. After 20 min of incubation, […] of Biomol® green reagent was added, and absorbance was read at 650 nm after 5 min. Initial data were fitted to competitive, (v/V = [S]/{KM(1 + [I]/KI)+ [S]}), non-competitive (v/V = [S]/{(1 + [I]/KI)(KM+ [S])}), uncompetitive (v/V = [S]/{KM+ [S](1 + [I]/KI)}) inhibition models in which v is observed reaction rate, V is the maximum rate, KM is the Michaelis constant, using SigmaPlot 12.0 software. The best fit was taken as the one having the highest R^2, the lowest standard error and the narrowest 95% confidence interval in each parameter (see Supplementary Table S6).

DdlB = DdlB (Escherichia coli, UniProt P07862); assay: Surface plasmon resonance, immobilised DdlB; type: binding, E. coli; conditions: steady-state affinity model, three titrations, 25 °C; read-out: apparent equilibrium dissociation constant KD
Method: Figure 2. Fragment hit 3 targeting DdlB. (A) Dose–response inhibition of DdlB for 3. (B) SPR analysis of 3 with the immobilised DdlB. 3 was injected across DdlB in serial dilutions ranging from 78.125 to 5000 µM for 40 s at a flow rate of 30 μL/min, and dissociation was followed for 40 s. […] (C) Data were fitted to the steady-state affinity model to obtain the apparent equilibrium dissociation constant (KD). KD values are the mean ± standard deviation of three titrations. (D) ATP (blue sticks) and D-Ala-D-Ala (white sticks) binding sites of DdlB (PDB ID: 4C5C) with the co-crystallised ligands. (E) Computational docking of 3 to the ATP-binding site using extra-precision Glide (blue sticks) and QM-Polarized Ligand Docking (orange sticks) (PDB ID: 4C5C).
Binding of 3 to DdlB was confirmed by an orthogonal biophysical assay, surface plasmon resonance (SPR). […]
The SPR measurements were performed at the Infrastructural Centre for Analysis of Molecular Interactions at the Department of Biology, University of Ljubljana on a Biacore T200 (GE Healthcare) at 25 °C. […] The data were analysed with the Biacore T200 Evaluation Software and KD was determined by fitting the data to the steady state affinity model. The average KDs and standard deviations were determined from three titrations of 3.

E. coli ATCC 25922 = assay: MIC by broth microdilution; type: cell-based; conditions: for MIC: Escherichia coli
Method: (§1) The antibacterial activities of 3 were determined according to the European Committee for […] Susceptibility Testing recommendations and Clinical Laboratory Standards Institute protocol. Compound was tested against reference strains of E. coli and Staphylococcus aureus and against two mutant E. coli strains. E. coli D22 bears a mutation in the LpxC gene that increases membrane permeability, whereas E. coli N43 is an AcrA knockout strain (knockout of the cell membrane pump). […] The most plausible reason is the low on target activity of the hit fragment, however, also the poor penetration into the bacterial cell or efflux pumps effect cannot be ruled out. Although the lack of antibacterial activity is a limitation, hit compound 3 represents a fragment-sized starting point for the development of new compounds with increased DdlB inhibitory potency as well as antibacterial activity.
(§2) Minimum inhibitory concentrations (MICs) for 3 were determined by broth microdilution in Cation-adjusted Mueller-Hinton broth (MH) with TES, TREK Diagnostic Systems Ltd. against S. aureus ATCC 29213, E. coli ATCC 25922, E. coli N43 and E. coli D22. All of the experiments were performed in duplicate in 96-well plate format according to CLSI guidelines and European Committee for Antimicrobial Susceptibility Testing recommendations. The bacterial suspension of a specific bacterial strain was diluted with MH broth to obtain a final inoculum of 5 × 10^5 CFU/mL in the assay. Compound 3 dissolved in DMSO and inoculum were mixed together and incubated for 20 h at 35 °C. After incubation, the minimal inhibitory concentration (MIC) values were determined by visual inspection as the lowest dilution of compounds showing no turbidity. The MICs were determined against S. aureus (ATCC 29213), E. coli (ATCC 25922), E. coli N43, and E. coli D22 bacterial strains. D-Cycloserine was used as a positive control.

E. coli D22 = assay: MIC by broth microdilution; type: cell-based; conditions: Escherichia coli, D22, 20 h
Method: as §1, §2

E. coli N43 = assay: MIC by broth microdilution; type: cell-based; conditions: Escherichia coli, N43, 20 h
Method: as §1, §2

S. aureus ATCC 29213 = assay: MIC by broth microdilution; type: cell-based; conditions: for MIC: Staphylococcus aureus
Method: as §1, §2

[2] = biological target: E. coli MurA enzyme (UDP-N-acetylglucosamine enolpyruvyl transferase) (Escherichia coli, UniProt P0A749); assay: MurA inhibition assay (malachite green, deselection); conditions: read-out: MurA inhibition, RA (Residual Activity)
Method: Inhibition of the enzyme was determined using an end-point malachite green assay by detecting the orthophosphate formed during the enzymatic reaction. […] The final DMSO concentration was 5%. […] A parallel experiment without the enzyme was performed to detect insoluble compounds under the assay conditions and subtracted from each measurement. All experiments were performed in duplicates. RAs were calculated with respect to blank experiments without tested compounds and with 5% DMSO.

[3] = Solubility at tested concentrations in fragment library screening; type: physicochemical
From the text: Supplement IENZ_A_2149745_SM2502.zip/DDlB_CDR05_SI_20221103.xlsx, sheet "Fragment library screening" | column: Solubility at tested concentrations

[4] = read-out: DdlB inhibition, RA (Residual Activity)
[5] = residual activity, read-out: DdlB RA

Sequence of E. coli MurA enzyme (UDP-N-acetylglucosamine enolpyruvyl transferase) (P0A749 whole entry, the tested form may be a part): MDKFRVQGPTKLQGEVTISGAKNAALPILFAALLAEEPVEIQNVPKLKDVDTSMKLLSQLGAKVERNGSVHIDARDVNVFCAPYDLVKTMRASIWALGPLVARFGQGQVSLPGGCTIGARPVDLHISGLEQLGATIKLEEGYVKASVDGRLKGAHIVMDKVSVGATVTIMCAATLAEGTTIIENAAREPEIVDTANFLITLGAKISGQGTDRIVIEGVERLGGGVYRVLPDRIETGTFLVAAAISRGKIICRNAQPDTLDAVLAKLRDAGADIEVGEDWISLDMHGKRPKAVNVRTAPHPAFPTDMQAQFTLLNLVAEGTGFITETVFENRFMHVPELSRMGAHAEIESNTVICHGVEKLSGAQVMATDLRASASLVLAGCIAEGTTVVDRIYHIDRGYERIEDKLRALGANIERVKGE

Cc1cccc(-c2ccnc3c(C(=O)O)cnn23)c1 [Compound 3, 7-(m-Tolyl)pyrazolo[1,5-a]pyrimidine-3-carboxylic acid]
IC50 [1]: 168 µM
Ki (DdlB from E. coli; Competitive (full) model, best fit, ATP varied, D-Ala 700 µM): 20.7 ± 4.5 µM
Ki (DdlB from E. coli; Competitive (partial) model): 20.7 ± 5.2 µM
Ki (DdlB from E. coli; Noncompetitive (full) model): 221 ± 21.7 µM
inhibition mechanism (DdlB from E. coli; with respect to ATP): competitive inhibitor with respect to ATP
Kd (DdlB): 3200 µM
antibacterial activity (in words) (E. coli ATCC 25922; E. coli): no antibacterial activity
MIC (E. coli ATCC 25922; ATCC25922, 20 h): > 128 µg/mL
MIC (E. coli D22): > 128 µg/mL
MIC (E. coli N43): > 128 µg/mL
antibacterial activity (in words) (S. aureus ATCC 29213; S. aureus): no antibacterial activity
MIC (S. aureus ATCC 29213; ATCC29213, 20 h): > 128 µg/mL
remaining activity at 5000 µM [2]: 64%

COc1ccc(-n2c(C)ccc2C)nc1 [Compound 4]
IC50 [1]: 1790 µM
remaining activity at 5000 µM [2]: 39%

Cc1noc(C)c1C(=O)NCC1Cn2cccc2CN1C (stereo not shown) [Compound 5]
remaining activity at 2500 µM ([1]; at 2.5 mM, read-out: DdlB inhibition, RA (Residual Activity)): 28%
remaining activity at 5000 µM [2]: 6%

CCOc1ccc2c(n1)CCN(C(=O)c1ccccn1)C2 [Compound 6, (2-Ethoxy-7,8-dihydro-1,6-naphthyridin-6(5H)-yl)(pyridin-2-yl)methanone]
remaining activity at 5000 µM [1, 4]: 25%
remaining activity at 2100 µM ([1]; residual activity, tested concentration 2.1 mM, read-out: DdlB RA): 44%
remaining activity at 5000 µM [2]: 104%

Nc1ccc2ncc(C(=O)O)c(O)c2c1 [Compound 7, 6-Amino-4-hydroxyquinoline-3-carboxylic acid]
remaining activity at 5000 µM [1, 4]: 47%
remaining activity at 5000 µM [2]: 81%

COCc1cn(C2CNC2)nn1 [Compound 8]
remaining activity at 5000 µM [1, 4]: 95%
remaining activity at 5000 µM [2]: 100%

Cc1ccc(C)c(S(=O)(=O)N2CCCC(C)C2)c1 (stereo not shown) [Compound Y206-4328]
remaining activity at 2200 µM [1, 5]: 116%
Solubility at tested concentrations ([3]; tested concentration 2.2 mM): not soluble

CC1CCCC(NC(=O)c2ccc(Cl)cc2)C1C (stereo not shown) [Compound Y502-2265]
remaining activity at 2300 µM ([1]; residual activity, tested concentration 2.3 mM, read-out: DdlB RA): 91%
Solubility at tested concentrations ([3]; tested concentration 2.3 mM): not soluble

O=C(O)c1cc(-c2ccccc2)nc2c(Cl)cnn12 [Compound Y504-7719]
remaining activity at 2200 µM [1, 5]: 90%
Solubility at tested concentrations ([3]; tested concentration 2.2 mM): not soluble

O=S(=O)(c1ccccc1)N1CCOc2ccccc21 [Compound Z606-0391]
remaining activity at 2000 µM ([1]; residual activity, tested concentration 2.0 mM, read-out: DdlB RA): 97%
Solubility at tested concentrations ([3]; tested concentration 2.0 mM): not soluble

N[C@@H]1CON=C1O [D-Cyclo-serine, D-Cycloserine, reference compound]
IC50 [1]: 108 µM
MIC (E. coli ATCC 25922; ATCC25922, E. coli ATCC 25922, 20 h at 35 °C, read-out: MIC): 64 µg/mL (≈ 627 µM)
MIC (E. coli D22): 16 µg/mL (≈ 157 µM)
MIC (E. coli N43): 32 µg/mL (≈ 313 µM)
MIC (S. aureus ATCC 29213; ATCC29213, S. aureus ATCC 29213, 20 h at 35 °C, read-out: MIC): 32 µg/mL (≈ 313 µM)
